Test results from the NIST ThermoML archive (doi:10.1021/je050414d).

Assay: xn = mol fraction of the nth substance listed
Conditions: 101 kPa, Liquid; for viscosity: Capillary tube (Ostwald / Ubbelohde) method

CCOC(=O)OCC [diethyl carbonate] + CO
Conditions	mass density [kg/m3]	viscosity [mPa·s]
293.15 K, x1 = 0.1045	839.93	0.599
293.15 K, x1 = 0.2128	874.69	0.622
293.15 K, x1 = 0.2835	892.08	0.634
293.15 K, x1 = 0.4025	915.12	0.655
293.15 K, x1 = 0.5161	932.04	0.679
293.15 K, x1 = 0.6057	942.83	0.7
293.15 K, x1 = 0.7015	952.67	0.723
293.15 K, x1 = 0.8	961.18	0.747
293.15 K, x1 = 0.8845	967.44	0.772
293.15 K, x1 = 1	975	0.801
298.15 K, x1 = 0.1045	834.64	0.567
298.15 K, x1 = 0.2128	869.33	0.588
298.15 K, x1 = 0.2835	886.65	0.598
298.15 K, x1 = 0.4025	909.56	0.616
298.15 K, x1 = 0.5161	926.35	0.637
298.15 K, x1 = 0.6057	937.11	0.656
298.15 K, x1 = 0.7015	946.89	0.677
298.15 K, x1 = 0.8	955.37	0.696
298.15 K, x1 = 0.8845	961.65	0.715
298.15 K, x1 = 1	968.97	0.746
303.15 K, x1 = 0.1045	829.8	0.527
303.15 K, x1 = 0.2128	864.12	0.546
303.15 K, x1 = 0.2835	881.42	0.556
303.15 K, x1 = 0.4025	904.25	0.573
303.15 K, x1 = 0.5161	921	0.593
303.15 K, x1 = 0.6057	931.74	0.611
303.15 K, x1 = 0.7015	941.49	0.63
303.15 K, x1 = 0.8	949.97	0.651
303.15 K, x1 = 0.8845	956.23	0.671
303.15 K, x1 = 1	962.39	0.695
313.15 K, x1 = 0.1045	819.68	0.462
313.15 K, x1 = 0.2128	853.64	0.48
313.15 K, x1 = 0.2835	870.71	0.49
313.15 K, x1 = 0.4025	893.3	0.503
313.15 K, x1 = 0.5161	909.94	0.521
313.15 K, x1 = 0.6057	920.59	0.537
313.15 K, x1 = 0.7015	930.26	0.556
313.15 K, x1 = 0.8	938.67	0.572
313.15 K, x1 = 0.8845	944.93	0.587
313.15 K, x1 = 1	952.32	0.61
323.15 K, x1 = 0.1045	809.45	0.408
323.15 K, x1 = 0.2128	843	0.424
323.15 K, x1 = 0.2835	859.86	0.432
323.15 K, x1 = 0.4025	882.25	0.444
323.15 K, x1 = 0.5161	898.72	0.461
323.15 K, x1 = 0.6057	909.28	0.477
323.15 K, x1 = 0.7015	918.88	0.493
323.15 K, x1 = 0.8	927.24	0.507
323.15 K, x1 = 0.8845	933.43	0.523
323.15 K, x1 = 1	939.78	0.541
333.15 K, x1 = 0.1045	796.31	0.363
333.15 K, x1 = 0.2128	830.09	0.376
333.15 K, x1 = 0.2835	847.11	0.384
333.15 K, x1 = 0.4025	869.76	0.397
333.15 K, x1 = 0.5161	886.44	0.41
333.15 K, x1 = 0.6057	897.15	0.426
333.15 K, x1 = 0.7015	906.9	0.441
333.15 K, x1 = 0.8	915.39	0.454
333.15 K, x1 = 0.8845	921.71	0.466
333.15 K, x1 = 1	928.69	0.483
